Results from US20080275073A1, “CRYSTALLINE FORMS AND POLYMORPHS OF N-(3-(DIMETHYLAMINO)PROPYL)-4-(4-(3-FLUORO-4-METHOXYPHENYL) PYRIMIDIN-2-YLAMINO) BENZENESULFONAMIDE AS PHARMACEUTICALLY ACCEPTABLE SALTS” (Wyeth, priority 2007, published 2008).

How the values were obtained:
[1] = solubility of free base in organic solvents / group 3 solvents; type: physicochemical; details: free base form
Experimental: (§1) In an exemplary embodiment, the solubility of the free base form of compound 3 in THF, DMSO and DMF was high but the solubility in group 3 solvents, including water for example, was low. For example, acetone is needed to dissolve the free base at 50° C. […] HCl, phosphoric acid, tartaric acid, acetic acid, D-, L-glucoronic acid and succinic acid were used to prepare pharmaceutically acceptable salts of compound 3. One crystalline form of compound 3 as a mono-succinate salt and five crystalline polymorphs of compound 3 as a hemi-succinate salt are provided in the Examples.

[2] = water solubility of free base and salts of compound 3; type: physicochemical
Experimental: as §1

Compound | solubility in DMF ([1]; DMF) | solubility in DMSO ([1]; DMSO) | solubility in THF ([1]; THF) | solubility in group 3 solvents, including water ([1]; group 3 solvents, including water) | Solubility in water ([2]; free base, thermogravimeteric method) | solubility ([2]; thermodynamic from solid, in water)
COc1ccc(-c2ccnc(Nc3ccc(S(=O)(=O)NCCCN(C)C)cc3)n2)cc1F [compound 3] | high | high | high | low | not detectable | 
COc1ccc(-c2ccnc(Nc3ccc(S(=O)(=O)NCCCN(C)C)cc3)n2)cc1F.O=C(O)CCC(=O)O [mono-succinate, N-(3-(dimethylamino)propyl)-4-(4-(3-fluoro-4-methoxyphenyl)pyrimidin-2-ylamino)benzenesulfonamide] |  |  |  |  |  | 1100 µg/mL
